Reference: patent US20230357765A1, “USE OF LONG NON-CODING RNAS IN MEDULLOBLASTOMA” (THE JOHNS HOPKINS UNIVERSITY, priority 2020, published 2023)
l = locked nucleic acid (LNA); d = 2'-deoxy (DNA)

Legend:
[1] = tested on: D425 Med and MED211 MB cells; assay: Cell proliferation assay, living cells counted by trypan blue staining; type: cell-based, human
Description: (§1) Cell Culture. Cell lines were authenticated using single tandem repeat profiling. D425 Med cells were cultured in DMEM/ F12 with 10% serum and 1% glutamate/penicillin/streptomycin. MED211 cells were cultured in medium composed of 30% Ham’s F12/70% DMEM, 1% antibiotic antimycotic, 20% B27 supplement, 5 µg/mL heparin, 20 ng/mL epidermal growth factor (EGF), and 20 ng/mL fibroblast growth factor 2. DAOY cells were cultured in DMEM with 10% serum and 1% glutamate/penicillin/streptomycin. All cells were grown in a humidified incubator at 37° C., 5% CO2. For blocking of bromodomain and extraterminal domain family (BET) bromodomain protein in D425 Med and MED211 cells, Jun Qi 1 (JQ1) (SML1524-5MG, Sigma Aldrich) was added, and the medium was changed every other day.
Cell Proliferation, Apoptosis, and 3D Colony Formation Assays. Cells were plated in 96-well plates at 5 × 10^3 cells per well in triplicate. After 72 hours of ASO or siRNA transfection, living cells were counted by trypan blue staining. Apoptotic cells were analyzed using a GloMax luminometer (Promega) with conditions optimized for the Caspase-Glo 3/7 Assay. […] Colony number was determined using the EVE cell counter (Nano Entek), and staining intensity was analyzed using ImageJ software.

MYC = MYC expression in JQ1-treated cells, qRT-PCR; type: cell-based, human; details: D425 Med and MED211 cells; JQ1 100 or 300 nM; relative to DMSO
Description: as §1
(§2) Quantitative Real-Time PCR. Total RNA was purified using the Direct-zol RNA Miniprep kit (Zymo Research). To obtain RNA from xenografts, tumor tissues were pulverized and then used for purification. Quantitative PCR was carried out using SYBR Green mRNA assays as previously described.^8 Primer sequences are listed in Tables 8-9 and Supplementary Table 2 (available online).
(§3) JQ1 Regulates lnc-HLX-2-7via MYC. […] In addition, downregulation of lnc-HLX-2-7 by JQ1 was also confirmed in vivo (FIGS. 10).

lnc-HLX-2-7 [2] = assay: lnc-HLX-2-7 expression in JQ1-treated cells, qRT-PCR; type: cell-based, human; details: D425 Med and MED211 cells; JQ1 100 or 300 nM; relative to DMSO
Description: as §1, §2, §3

[3] = tested on: D425 Med and MED211 intracranial xenografts; assay: Intracranial MB xenografts treated with JQ1, bioluminescence imaging and qPCR of tumors; type: in vivo, NOD-SCID mice; details: JQ1 50 mg/kg intraperitoneal on alternating days for 14 days; versus DMSO
Description: FIGS. 10A-10C. JQ1 regulates lnc-HLX-2-7 via MYC in vivo. (FIG. 10A) D425 Med and MED211 cells expressing luciferase were implanted into the […] of NOD-SCID mice. Seven days after injection, mice were administered DMSO or JQ1. Tumor formation was assessed by bioluminescence imaging. Changes in bioluminescent signal were examined weekly after tumor implantation. (FIG. 10B) Quantification of total photon counts from mice treated with JQ1 or DMSO. n=4, *p<0.05, Student’s t-test. (FIG. 10C) Expression levels of MYC and lnc-HLX-2-7 were examined by qPCR in DMSO or JQ1-treated mouse xenografts. Relative expression levels compared to those in the DMSO-treated tumor are indicated on the y-axis (n=4). Error bars indicate s.e.m. n=4, *p<0.01, Student’s t-test.
Medulloblastoma Xenografts (Intracranial). All mouse studies were approved and performed in accordance with the policies and regulations of the Animal Care and Use Committee of Johns Hopkins University. Intracranial MB xenografts were established by injecting D425 Med cells, MED211 cells, D425 Med cells with lnc- HLX-2-7 deleted, and MED211 cells with lnc-HLX-2-7 deleted into the cerebellums of NOD-SCID mice (Jackson Laboratory). […] Tumor growth was evaluated by weekly bioluminescence imaging using an in vivo spectral imaging system (IVIS Lumina II, Xenogen).

lnc-HLX-2-7 [4] = assay: ASO knockdown of lnc-HLX-2-7, expression by qRT-PCR; type: cell-based, human; details: D425 Med and MED211 cells; 50 nM ASO, Lipofectamine 3000; compared with ASO-Luc; P < 0.01
Description: FIGS. 48A-48C. Confirmation of ASO design and knockdown effect of lnc-HLX-2-7. (FIG. 48A) Diagram showing the sites targeted by each ASO. (FIGS. 48B-48C) Expression level of lnc-HLX-2-7in D425 Med (FIG. 48B) and MED211 (FIG. 48C) cells treated with ASO against the indicated genes on the x-axis. ASOs were transfected at 50 nM for 72 h using Lipofectamine 3000 (Thermo Fisher Scientific, Waltham MA). The efficiency was determined by qRT-PCR. Relative expression level to luciferase (Luc) gene is indicated on the y-axis. *p<0.01, Kruskal-Wallis analysis.
as §2
Antisense Oligonucleotides. Lnc-HLX-2-7 Antisense oligonucleotides (ASOs) were designed using the Integrated DNA Technologies (IDT) Antisense Design Tool (IDT). ASO knockdowns were performed with 50 nM (final concentration) locked nucleic acid (LNA) GapmeRs transfected with Lipofectamine 3000 (Thermo Fisher Scientific). All ASOs were modified with phosphorothioate (PS) linkages. […]

[5] = tested on: D425 Med and MED211 MB cells; assay: Apoptosis assay (Caspase-Glo 3/7); type: cell-based, human; details: 72 hours after ASO transfection, P < 0.01
Description: Cell Proliferation, Apoptosis, and 3D Colony Formation Assays. Cells were plated in 96-well plates at 5 × 10^3 cells per well in triplicate. After 72 hours of ASO or siRNA transfection, living cells were counted by trypan blue staining. Apoptotic cells were analyzed using a GloMax luminometer (Promega) with conditions optimized for the Caspase-Glo 3/7 Assay. For the 3D colony formation assay, cells were seeded in 24-well plates at a density of 1 × 10^2 cells/well and were stained with crystal violet solution approximately 14 days later. Colony number was determined using the EVE cell counter (Nano Entek), and staining intensity was analyzed using ImageJ software.

HLX = HLX expression after ASO treatment, qRT-PCR; type: cell-based, human; details: D425 Med and MED211 cells treated with ASO
Source text: FIG. 8. lnc-HLX-2-7regulates the expression of HLX coding gene. Expression levels of HLX in D425 Med and MED211 cells treated with ASO against the indicated genes in the x-axis. Relative expression level to mock is indicated in the y-axis. *p<0.01, Kruskal-Wallis analysis.
as §2
Antisense Oligonucleotides. Lnc-HLX-2-7 Antisense oligonucleotides (ASOs) were designed using the Integrated DNA Technologies (IDT) Antisense Design Tool (IDT). ASO knockdowns were performed with 50 nM (final concentration) locked nucleic acid (LNA) GapmeRs transfected with Lipofectamine 3000 (Thermo Fisher Scientific). All ASOs were modified with phosphorothioate (PS) linkages.

Row | Compound | cell growth (viable cell numbers) with JQ1 ([1]; effect suppressed by overexpression of lnc-HLX-2-7 (pcDNA4-lnc-HLX-2-7)) | MYC expression (MYC) | lnc-HLX-2-7 expression (lnc-HLX-2-7 [2]) | lnc-HLX-2-7 expression in xenograft tumors [3] | lnc-HLX-2-7 expression (lnc-HLX-2-7 [4]) | MB cell growth (viable cell numbers) ([1]; 72 hours after ASO transfection, P < 0.01) | apoptosis (apoptotic cell numbers) [5] | HLX expression (HLX)
1 | Cc1sc2c(c1C)C(c1ccc(Cl)cc1)=N[C@@H](CC(=O)OC(C)(C)C)c1nnc(C)n1-2 [JQ1, Jun Qi 1 (JQ1)] | cell growth inhibition | downregulated | downregulated | downregulation |  |  |  | 
2 | +T^∗+G^∗+A^∗G^∗A^∗G^∗A^∗T^∗T^∗A^∗A^∗T^∗C^∗T^∗A^∗G^∗A^∗T^∗+T^∗+G^∗+C (TGAGAGATTAATCTAGATTGC; sugars from the 5' end l3 d15 l3, all phosphorothioate, methylation of C not given here) [ASO-lnc-HLX-2-7] |  |  |  |  | significantly decreased | significantly suppressed | induced apoptosis | significantly reduced
